For 10 compounds, IC50 results are on record in ChEMBL document CHEMBL1151102, “Macrocyclic pyrrolizidine alkaloids from Senecio anonymus. Separation of a complex alkaloid extract using droplet counter-current chromatography” (J Nat Prod, 1988).

Each structure is given as a SMILES string. ≈ marks a conversion by molar mass, not a printed value.

This assay concerns A204. Description: Cytotoxicity against human A204 cells after 24 hrs by soft agar colony forming assay. The assay is classed as functional, cell-based. The following applies: A204, 24 h.
A word on the IC50: it is the point on the concentration scale where inhibition reaches its midpoint. Lower therefore signals greater potency. Compound `C[C@@H]1C[C@@]2(O[C@H]2C)C(=O)O[C@@H]2CCN(C)C/C=C(/COC(=O)[C@]1(C)O)C2=O` [OTOSENINE] returned an IC50 of 130 µg/mL (≈ 341 µM).
Under `C[C@@H]1C/C(=C\CO)C(=O)O[C@@H]2CCN(C)C/C=C(/COC(=O)[C@]1(C)O)C2=O` [ANONAMINE] stands 153 µg/mL (≈ 401 µM).
Under `C/C=C1\C[C@@H](C)[C@@](C)(O)C(=O)OCC2=CCN3CC[C@@H](OC1=O)[C@@H]23` [INTEGERRIMINE] stands 120 µg/mL (≈ 358 µM).
The compound `C/C=C1/C[C@@H](C)[C@@](C)(O)C(=O)OC/C2=C/CN(C)CC[C@@H](OC1=O)C2=O` [NEOSENKIRKINE] displayed an IC50 of 221 µg/mL (≈ 605 µM). This IC50 lies about 1.8-fold higher than the previous one.
Under `C/C=C1/C[C@@H](C)[C@@](C)(O)C(=O)OCC2=CC[N+]3([O-])CC[C@@H](OC1=O)[C@@H]23` (stereo not given in full) [SENECIONINE N-OXIDE] stands 150 µg/mL (≈ 427 µM); under `C/C=C1\C[C@@H](C)[C@](O)(CO)C(=O)OCC2=CCN3CC[C@@H](OC1=O)[C@@H]23` [RETRORSINE], 120 µg/mL (≈ 341 µM); under `C/C=C1/C[C@@H](C)[C@](O)(CO)C(=O)OC/C2=C/CN(C)CC[C@@H](OC1=O)C2=O` [HYDROXYSENKIRKINE], 360 µg/mL (≈ 944 µM).
Under `C/C=C1/C[C@@H](C)[C@@](C)(O)C(=O)OCC2=CCN3CC[C@@H](OC1=O)[C@@H]23` [SENECIONINE] stands 150 µg/mL (≈ 447 µM); under `C/C=C1\C[C@@H](C)[C@@](C)(O)C(=O)OC/C2=C/CN(C)CC[C@@H](OC1=O)C2=O` [SENKIRKINE], 260 µg/mL (≈ 711 µM).
Under `C[C@H]1C(=O)O[C@@H]2CCN3CC=C(COC(=O)[C@](C)(O)[C@]1(C)O)[C@H]23` [MONOCROTALINE] stands 316 µg/mL (≈ 971 µM).
